Test results taken from US20190161499A1, “PESTICIDALLY ACTIVE 1,2,4-TRIAZOLE DERIVATIVES” (SYNGENTA PARTICIPATIONS AG, priority 2015, published 2019).

What was measured:
Format in all cases: in vivo
[1] = system: Spodoptera littoralis (Egyptian Cotton Leaf Worm); assay: Spodoptera littoralis cotton leaf disc spray test; details: foliar, 72 h, application rate 200 ppm, L1 larvae, 3 days after infestation, read-out: control (at least one of mortality, anti-feedant effect, growth inhibition)
Procedure: Spodoptera littoralis (Egyptian Cotton Leaf Worm)
Cotton leaf discs were placed on agar in 24-well microtiter plates and sprayed with aqueous test solutions prepared from 10,000 ppm DMSO stock solutions. After drying, the leaf discs were infested with five L1 larvae. The samples were assessed for mortality, anti-feedant effect, and growth inhibition in comparison to untreated samples 3 days after infestation. Control of Spodoptera littoralis by a test sample is when at least one of mortality, anti-feedant effect, and growth inhibition is higher than the untreated sample.

[2] = system: Plutella xylostella (Diamond Back Moth); assay: whole plant or invertebrate; details: 120 h, application rate 200 ppm, L2 larvae, 5 days after infestation, read-out: effect in at least one of the two categories (mortality or growth inhibition)
Procedure: Example B2: Plutella xylostella (Diamond Back Moth)
(§1) 24-well microtiter plates with artificial diet were treated with aqueous test solutions prepared from 10,000 ppm DMSO stock solutions by pipetting. After drying, the plates were infested with L2 larvae (10 to 15 per well). The samples were assessed for mortality and growth inhibition in comparison to untreated samples 5 days after infestation.

[3] = system: Diabrotica Balteata (Corn Root Worm); assay: whole plant or invertebrate; details: 96 h, application rate 200 ppm, L2 larvae, 4 days after infestation, read-out: effect in at least one of the two categories (mortality or growth inhibition)
Procedure: Example B3: Diabrotica Balteata (Corn Root Worm)
as §1, with “Maize sprouts, placed on an agar layer in 24-well” for “24-well”, “plates” for “plates with artificial diet”, “spraying.” for “pipetting.”, “(6” for “(10”, “10” for “15”, “4” for “5”

Fc1ccccc1-n1nc(-c2ccc(Cl)c(Cl)c2)nc1CN1CCC(c2ncccn2)CC1 [Example 1.20]
≥ 80%: percent control (mortality, anti-feedant effect or growth inhibition) at 200 ppm [1] | percent effect (mortality or growth inhibition) at 200 ppm [2] | percent effect (mortality or growth inhibition) at 200 ppm [3]

Fc1cccc(F)c1-n1nc(-c2ccc(C(F)(F)F)cc2)nc1CN1CCC(c2ncccn2)CC1 [Example 1.21]
≥ 80%: percent control (mortality, anti-feedant effect or growth inhibition) at 200 ppm [1] | percent effect (mortality or growth inhibition) at 200 ppm [2] | percent effect (mortality or growth inhibition) at 200 ppm [3]

Fc1ccccc1-n1nc(-c2ccc(C(F)(F)F)cc2)nc1CN1CCC(c2ncccn2)CC1 [Example 1.26]
≥ 80%: percent control (mortality, anti-feedant effect or growth inhibition) at 200 ppm [1] | percent effect (mortality or growth inhibition) at 200 ppm [2] | percent effect (mortality or growth inhibition) at 200 ppm [3]

Fc1ccc(-c2nc(CN3CCC(c4ncccn4)CC3)n(-c3ccc(F)cc3)n2)cc1 [Example 1.29]
≥ 80%: percent control (mortality, anti-feedant effect or growth inhibition) at 200 ppm [1] | percent effect (mortality or growth inhibition) at 200 ppm [2] | percent effect (mortality or growth inhibition) at 200 ppm [3]

Fc1ccc(-n2nc(-c3ccc(Cl)cc3)nc2CN2CCC(c3ncccn3)CC2)c(F)c1 [Example 1.30]
≥ 80%: percent control (mortality, anti-feedant effect or growth inhibition) at 200 ppm [1] | percent effect (mortality or growth inhibition) at 200 ppm [2] | percent effect (mortality or growth inhibition) at 200 ppm [3]

CC1(C)CCN(Cc2nc(-c3ccc(Cl)cc3)nn2-c2ccccc2F)CC1 [Example 1.35]
≥ 80%: percent control (mortality, anti-feedant effect or growth inhibition) at 200 ppm [1] | percent effect (mortality or growth inhibition) at 200 ppm [2] | percent effect (mortality or growth inhibition) at 200 ppm [3]

Fc1ccccc1-n1nc(-c2cccc(C(F)(F)F)c2)nc1CN1CCC(c2ncccn2)CC1 [Example 1.38]
≥ 80%: percent control (mortality, anti-feedant effect or growth inhibition) at 200 ppm [1] | percent effect (mortality or growth inhibition) at 200 ppm [2] | percent effect (mortality or growth inhibition) at 200 ppm [3]

Fc1ccccc1-n1nc(-c2ccc(Cl)cc2)nc1CN1CCC(c2ccccc2)CC1 [Example 1.43]
≥ 80%: percent control (mortality, anti-feedant effect or growth inhibition) at 200 ppm [1] | percent effect (mortality or growth inhibition) at 200 ppm [2] | percent effect (mortality or growth inhibition) at 200 ppm [3]

CC1CCN(Cc2nc(-c3ccc(Cl)cc3)nn2-c2ccccc2F)CC1 [Example 1.46]
≥ 80%: percent control (mortality, anti-feedant effect or growth inhibition) at 200 ppm [1] | percent effect (mortality or growth inhibition) at 200 ppm [2] | percent effect (mortality or growth inhibition) at 200 ppm [3]

Clc1ccc(-c2nc(CN3CCC(c4ncccn4)CC3)n(-c3cccc(Cl)c3Cl)n2)cc1 [Example 1.55]
≥ 80%: percent control (mortality, anti-feedant effect or growth inhibition) at 200 ppm [1] | percent effect (mortality or growth inhibition) at 200 ppm [2] | percent effect (mortality or growth inhibition) at 200 ppm [3]

Clc1ccc(-c2nc(CN3CCC(c4ncccn4)CC3)n(Cc3ccccc3)n2)cc1 [Example 1.56]
≥ 80%: percent control (mortality, anti-feedant effect or growth inhibition) at 200 ppm [1] | percent effect (mortality or growth inhibition) at 200 ppm [2] | percent effect (mortality or growth inhibition) at 200 ppm [3]

Clc1ccc(-c2nc(CN3CCC(c4ncccn4)CC3)n(-c3ccccc3)n2)cc1 [Example 1.61]
≥ 80%: percent control (mortality, anti-feedant effect or growth inhibition) at 200 ppm [1] | percent effect (mortality or growth inhibition) at 200 ppm [2] | percent effect (mortality or growth inhibition) at 200 ppm [3]

Cc1ccccc1-n1nc(-c2ccc(Cl)cc2)nc1CN1CCC(c2ncccn2)CC1 [Example 1.62]
≥ 80%: percent control (mortality, anti-feedant effect or growth inhibition) at 200 ppm [1] | percent effect (mortality or growth inhibition) at 200 ppm [2] | percent effect (mortality or growth inhibition) at 200 ppm [3]

Clc1ccc(-c2nc(CN3CCC(c4ncccn4)CC3)n(-c3ccc(Cl)cc3)n2)cc1 [Example 1.66]
≥ 80%: percent control (mortality, anti-feedant effect or growth inhibition) at 200 ppm [1] | percent effect (mortality or growth inhibition) at 200 ppm [2] | percent effect (mortality or growth inhibition) at 200 ppm [3]

COc1ccccc1-n1nc(-c2ccc(Cl)cc2)nc1CN1CCC(c2ncccn2)CC1 [Example 1.70]
≥ 80%: percent control (mortality, anti-feedant effect or growth inhibition) at 200 ppm [1] | percent effect (mortality or growth inhibition) at 200 ppm [2] | percent effect (mortality or growth inhibition) at 200 ppm [3]

Clc1ccc(-c2nc(CN3CCC(c4ncccn4)CC3)n(-c3ccc(Br)cc3)n2)cc1 [Example 1.76]
≥ 80%: percent control (mortality, anti-feedant effect or growth inhibition) at 200 ppm [1] | percent effect (mortality or growth inhibition) at 200 ppm [2] | percent effect (mortality or growth inhibition) at 200 ppm [3]

Clc1ccc(-c2nc(CN3CCC(c4ncccn4)CC3)n(-c3c(Cl)cc(Cl)cc3Cl)n2)cc1 [Example 1.77]
≥ 80%: percent control (mortality, anti-feedant effect or growth inhibition) at 200 ppm [1] | percent effect (mortality or growth inhibition) at 200 ppm [2] | percent effect (mortality or growth inhibition) at 200 ppm [3]

Clc1ccc(-c2nc(CN3CCC(c4ncccn4)CC3)n(-c3ccccn3)n2)cc1 [Example 1.78]
≥ 80%: percent control (mortality, anti-feedant effect or growth inhibition) at 200 ppm [1] | percent effect (mortality or growth inhibition) at 200 ppm [2] | percent effect (mortality or growth inhibition) at 200 ppm [3]

Fc1cccc(-n2nc(-c3ccc(Cl)cc3)nc2CN2CCC(c3ncccn3)CC2)c1 [Example 1.80]
≥ 80%: percent control (mortality, anti-feedant effect or growth inhibition) at 200 ppm [1] | percent effect (mortality or growth inhibition) at 200 ppm [2] | percent effect (mortality or growth inhibition) at 200 ppm [3]

Clc1ccc(-c2nc(CN3CCC(c4ncccn4)CC3)n(-c3ccccc3Cl)n2)cc1 [Example 1.83]
≥ 80%: percent control (mortality, anti-feedant effect or growth inhibition) at 200 ppm [1] | percent effect (mortality or growth inhibition) at 200 ppm [2] | percent effect (mortality or growth inhibition) at 200 ppm [3]

Cc1c(Cl)cccc1-n1nc(-c2ccc(Cl)cc2)nc1CN1CCC(c2ncccn2)CC1 [Example 1.84]
≥ 80%: percent control (mortality, anti-feedant effect or growth inhibition) at 200 ppm [1] | percent effect (mortality or growth inhibition) at 200 ppm [2] | percent effect (mortality or growth inhibition) at 200 ppm [3]

Cc1cc(Cl)ccc1-n1nc(-c2ccc(Cl)cc2)nc1CN1CCC(c2ncccn2)CC1 [Example 1.85]
≥ 80%: percent control (mortality, anti-feedant effect or growth inhibition) at 200 ppm [1] | percent effect (mortality or growth inhibition) at 200 ppm [2] | percent effect (mortality or growth inhibition) at 200 ppm [3]

Cc1nccc(C2CCN(Cc3nc(-c4ccc(Cl)cc4)nn3-c3ccccc3F)CC2)n1 [Example 1.110]
≥ 80%: percent control (mortality, anti-feedant effect or growth inhibition) at 200 ppm [1] | percent effect (mortality or growth inhibition) at 200 ppm [2] | percent effect (mortality or growth inhibition) at 200 ppm [3]

Fc1ccccc1-n1nc(-c2ccc(Cl)cc2)nc1CN1CCC(c2ccon2)CC1 [Example 1.120]
≥ 80%: percent control (mortality, anti-feedant effect or growth inhibition) at 200 ppm [1] | percent effect (mortality or growth inhibition) at 200 ppm [2] | percent effect (mortality or growth inhibition) at 200 ppm [3]

Fc1ccc(C2CCN(Cc3nc(-c4ccc(Cl)cc4)nn3-c3ccccc3F)CC2)nc1 [Example 1.122]
≥ 80%: percent control (mortality, anti-feedant effect or growth inhibition) at 200 ppm [1] | percent effect (mortality or growth inhibition) at 200 ppm [2] | percent effect (mortality or growth inhibition) at 200 ppm [3]

Fc1ccccc1-n1nc(-c2ccc(Cl)cc2)nc1CN1CCC(c2ncccc2Cl)CC1 [Example 1.126]
≥ 80%: percent control (mortality, anti-feedant effect or growth inhibition) at 200 ppm [1] | percent effect (mortality or growth inhibition) at 200 ppm [2] | percent effect (mortality or growth inhibition) at 200 ppm [3]

COC[C@@H]1CCCN1Cc1nc(-c2ccc(Cl)cc2)nn1-c1ccccc1F [Example 5.28]
≥ 80%: percent control (mortality, anti-feedant effect or growth inhibition) at 200 ppm [1] | percent effect (mortality or growth inhibition) at 200 ppm [2] | percent effect (mortality or growth inhibition) at 200 ppm [3]
